Non-standard residues stand in square brackets, D forms with d. No end group written: not given here. pS = N[C@@H](COP(=O)(O)O)C(=O)O
Key:
[1] = system: IκBα-ubiquitin ligase (pIκBα ubiquitination); experiment: In vitro ubiquitination assay of phosphorylated, NF-κB complex-associated IκBα in HeLa cell extract; format: biochemical, human; details: peptide at a concentration of 400 μM; Bestatin 40 μg/ml
Description: Following incubation, 1 μl of anti-p65 serum was added, and the NF-κB immune complex was immobilized to Protein A-Sepharose® and subjected to in vitro ubiquitination in HeLa cell extract as described by Alkalay et al. Ubiquitinated proteins were separated by SDS-PAGE and visualized by autoradiography.
To identify the IκBα-ubiquitin ligase recognition motif, various peptides were added at varying concentrations to the reaction mixtures in the presence of the peptidase inhibitor Bestatin (40 μg/ml). The peptides spanned the N-terminal signaling domain of the protein, and were phosphorylated at one or both serine residues (32 and 36), or were unmodified or serine-substituted. These peptides were included in the ubiquitination reaction at different concentrations and tested for inhibition of pIκBα specific ubiquitination. When conjugation of free IκBα was monitored, the translated protein was added directly to the conjugation reaction mixture.

[2] = system: IκB E3 in HeLa lysate; experiment: Fractionation of HeLa lysate over peptide-Sepharose columns, flow-through tested in ubiquitination assay; format: binding, human; details: peptide coupled to NHS-Sepharose, HeLa extract, FIG. 3A
Description: pIκBα-ubiquitin conjugation and degradation requires a full complement of the ubiquitin system enzymes: E1, a specific E2 derived from the ubiquitin system fraction I, E2F1 (Alkalay et al., Proc. Natl. Acad. Sci. USA 92:10599, 1995; Chen et al., Cell 84:853, 1996) and a Fraction II-component E3. To identify the ubiquitin system component involved in the substrate recognition, HeLa lysate was fractionated over IκBα phosphopeptide columns, and the flow-through fractions were assayed for pIκBα conjugation. Peptides were coupled to NHS-Sepharose® (Pharmacia) according to the manufacturer's instructions at a concentration of 2 mg/ml. 100 μg of HeLa extract were incubated with 2.5 μl coupled resin in the presence of 0.1% NP40 and 3% ovalbumin for 1 hour at 4° C. The resin was discarded and the unbound material tested in the ubiquitination assay described above.

[3] = system: E-selectin expression in primary human vascular endothelial cells (HUVEC); experiment: Microinjection into HUVEC, TNFα activation, E-selectin staining; format: cell-based; details: microinjected peptide, TNFα 3 hours
Description: (§1) HeLa cells were plated on a grid coverslips (Cellocate, Eppendorf) 18 hours before microinjection. Microinjection was performed with a 22 amino acid pIκBα peptide (pp21; Table I and SEQ ID NO:9) or a control phospho-Fos peptide (SEQ ID NO: 10) using a semi-automated apparatus (Eppendorf). Peptides were injected into the cell cytoplasm at a concentration of 5 mg/ml in 100 mM KCl, 5 mM Na2HPO4 (pH 7.2), and immediately activated with TNFα (200 units/mL) for either 20 minutes (for NF-κB translocation) or 3 hours (for E-selectin expression). Following activation, the cells were fixed and stained with p65 specific antibodies (Mercurio et al., Genes & Dev. 7:705, 1993; Santa Cruz) or monoclonal anti-E-selectin antibodies (R&D Systems).
To further assess the functional consequences of NF-κB inhibition, the IκB-E3 inhibitory peptide was microinjected into primary human vascular endothelial cells (HUVEC; Chen et al, J. Immunol 155:3538, 1995). These cells respond to TNFα stimulation by surface expression of NF-κB regulated adhesion proteins, such as E-selection. HUVEC cells were plated, microinjected and stimulated as described above. Three hours post stimulation the cells were fixed and stained for expression of the NF-κB dependent E-selection. 75%-85% of the HUVEC cells were intensely stained for E-selectin following TNFα stimulation in several experiments. […] In contrast, the control pp-Fos peptide had no effect on E-selectin expression, as compared to non-microinjected cells (FIGS. 4F and 4H, column 4). Microinjection of a control, S32736A substituted IκBα peptide had no effect on the rate of E-selectin expression.

[4] = system: pIκBα degradation; experiment: Ubiquitin-dependent in vitro degradation assay with extracts from stimulated HeLa cells; format: biochemical, human; details: 40 μM peptide, FIG. 2
Description: FIG. 2 is an autoradiogram depicting the results of an in vitro ubiquitin-dependent degradation assay performed using extracts from stimulated HeLa cells. In each lane of the SDS-PAGE, the level of phosphorylated (upper band) and non-phosphorylated (lower band) HA-tagged IκBα polypeptide (SEQ ID NO: 12) following the degradation assay is shown. […] In lanes 2-6, ATP was included in the reaction mixture. 40 μM candidate modulating agents were added to the reactions shown in lanes 3-6: doubly phosphorylated IκBα peptide (pp21 (SEQ ID NO:9), lane 3); doubly phosphorylated IκBα peptide (pp19 (SEQ ID NO:8), lane 4); c-Fos phosphopeptide (ppFos (SEQ ID NO: 10), lane 5); and non-phosphorylated IκBα peptide (p21 (SEQ ID NO:9), lane 6).
The inhibitory pIκBα peptides were tested in a complementary ubiquitin-dependent in vitro degradation assay (Orian et al., J. Biol. Chem. 270:21707, 1995; Stancovski et al., Mol. Cell. Biol. 75:7106, 1995). Using this assay, only pIκBα derived from stimulated cells is degraded in vitro in a ubiquitin-dependent manner, whereas the non-phosphorylated IκBα from the same cell extract is not subject to degradation.

[5] = system: NF-κB nuclear translocation in HeLa cells; experiment: Microinjection into HeLa cells, TNFα activation, p65 nuclear staining; format: cell-based, human; details: 5 mg/ml peptide microinjected
Description: as §1

[6] = target: T1, pIκBα (Homo sapiens, UniProt P25963); experiment: Binding of immobilized FLAG-tagged E3 family members to IκBα/NF-κB complex (Western blot); details: FIG. 11A
T1 construct: The IκBα/NF-κB complex was immunopurified from HeLa cells; endogenous in cells; host or cells: HeLa cells
Description: FIGS. 11A-11C are Western blots illustrating binding and ubiquitination specificity of E3 ubiquitin ligase family members. Within these figures, mβ-TrCP indicates mouse β-TrCP, hβ-TrCP indicates human β-TrCP, Δβ-TrCP indicates human β-TrCP with a deletion of the F box region and Slimb indicates the Drosophila Slimb protein. FIG. 11A illustrates selective binding to pIκBα. Proteins were immunoprecipitated through a FLAG epitope from transfected 293T cells, incubated with immunopurified IκBα/NF-κB complex, which had been treated (−/+IKK) as indicated and the bound material was analyzed by Western blotting with the indicated antibodies. […] FIG. 11C illustrates in vitro ubiquitination of pIκBα by the E3 family member proteins. Immunopurified FLAG-tagged proteins were incubated with ^35 S-labeled IκBα/NF-κB complexes, treated (−/+IKK) as indicated and subject to ubiquitination in the presence of ATPγS, ubiquitin. E1 and UBC5C. The IκBα substrate (composed of full-length and two degradation products), pIκBα-polyubiquitin conjugates and molecular size markers are indicated on the left.
The ability of these proteins to bind pIκBα specifically and assist in its ubiquitination was examined in a cell-free system. The IκBα/NF-κB complex was immunopurified from HeLa cells and the immune complex was either phosphorylated with IKK2-EE or mock-phosphorylated as described above. It was then incubated with the following immobilized FLAG-tagged E3 family members immunoprecipitated from transfected 293 cells: mouse β-TrCP (mβ-TrCP), human β-TrCP (hβ-TrCP), human β-TrCP with a deletion of the F box region residues 122-168 (Δβ-TrCP) and the Drosophila Slimb protein. The bound material was analyzed by Western blotting with anti-IκBα and anti-FLAG antibodies. […] Furthermore, β-TrCP binding was abrogated by a peptide representing the pIκBα recognition motif (pp10; DRHDS(PO3)GLDS(PO3)M (SEQ ID NO:29); see FIG. 11B, lane 3), but not by the control peptide (lane 4), specifying the site of pIκBα recognition of the conserved DS(PO3)GLDS(PO3) (SEQ ID NO:30) sequence.

T1 sequence (P25963 whole entry): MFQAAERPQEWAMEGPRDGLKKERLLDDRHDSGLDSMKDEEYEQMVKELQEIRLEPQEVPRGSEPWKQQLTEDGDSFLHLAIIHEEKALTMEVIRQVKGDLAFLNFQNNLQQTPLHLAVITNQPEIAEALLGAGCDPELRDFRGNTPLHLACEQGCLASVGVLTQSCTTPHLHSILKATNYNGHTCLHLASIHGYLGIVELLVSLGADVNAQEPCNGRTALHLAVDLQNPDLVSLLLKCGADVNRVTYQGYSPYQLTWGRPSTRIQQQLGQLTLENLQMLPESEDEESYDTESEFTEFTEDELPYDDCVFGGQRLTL
T1 sequence (Q04206 whole entry partner): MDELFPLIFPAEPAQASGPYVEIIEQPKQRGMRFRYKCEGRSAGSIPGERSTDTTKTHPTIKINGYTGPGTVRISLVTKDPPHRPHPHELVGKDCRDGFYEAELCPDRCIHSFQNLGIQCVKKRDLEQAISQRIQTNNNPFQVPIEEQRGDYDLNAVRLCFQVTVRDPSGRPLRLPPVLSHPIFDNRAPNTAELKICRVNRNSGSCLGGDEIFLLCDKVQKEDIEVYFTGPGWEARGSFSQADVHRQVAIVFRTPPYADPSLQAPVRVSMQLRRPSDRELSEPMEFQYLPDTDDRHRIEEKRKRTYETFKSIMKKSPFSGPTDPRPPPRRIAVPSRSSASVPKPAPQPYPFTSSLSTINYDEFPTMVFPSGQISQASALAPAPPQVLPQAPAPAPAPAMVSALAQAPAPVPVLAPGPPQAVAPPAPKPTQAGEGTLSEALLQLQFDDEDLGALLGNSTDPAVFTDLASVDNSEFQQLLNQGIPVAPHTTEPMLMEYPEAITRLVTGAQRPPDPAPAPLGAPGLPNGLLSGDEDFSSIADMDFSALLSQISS

Question: With “p21 S/A: serine 32, 36 to alanine substituted IκBα peptide, SEQ ID NO:11 (CKKERLLDDRHDAGLDAMKDEE; listed as Homo sapiens)” as the molecule, how does the “effect on the ubiquitination of pIκB” value [1] read?
Answer: no detectable effect

Question: What about the “IκBα conjugation capacity of column flow-through fraction” value [2] of the same molecule?
Answer: retained full IκBα conjugation capacity

Question: What about the “effect on E-selectin expression” value [3] of the same molecule?
Answer: no effect

Question: Which “effect on the ubiquitination of pIκB” value [1] does the source give for “p21: non-phosphorylated IκBα peptide, SEQ ID NO:9 (CKKERLLDDRHDSGLDSMKDEE; listed as Homo sapiens)” here?
Answer: no detectable effect

Question: What about the “effect on specific pIκBα degradation” value [4] of the same molecule?
Answer: no effect

Question: Which results are given for “pp21: doubly phosphorylated IκBα peptide, SEQ ID NO:9; 22 amino acid pIκBα peptide (CKKERLLDDRHD[pS]GLD[pS]MKDEE; listed as Homo sapiens)”?
Answer: microinjected cells in which TNFα-stimulated NF-κB activation was abolished ([5]; TNFα 200 units/mL 20 minutes, several experiments): 50%-70%; microinjected cells with inhibition of E-selectin expression [3]: 70%-80%

Question: How did the “effect on the ubiquitination of pIκB” value [1] turn out when “ppFos: c-Fos phosphopeptide, SEQ ID NO:10, control (IGRRGKVEQLSPEEEEKRR; not fully specified (residue 11); also: phosphorylated, sites not given here; listed as Homo sapiens)” was run?
Answer: no detectable effect

Question: And the “IκBα conjugation capacity of column flow-through fraction” value [2]?
Answer: retained full IκBα conjugation capacity

Question: What about the “effect on the rate of NF-κB induced nuclear translocation” value ([5]; compared to non-microinjected cells) of the same molecule?
Answer: no effect

Question: What about the “effect on specific pIκBα degradation” value [4] of the same molecule?
Answer: no effect

Question: What about the “effect on E-selectin expression” value [3] of the same molecule?
Answer: no effect

B1: mβ-TrCP: FLAG-tagged mouse β-TrCP, E3 family member (protein)
chain: MDPAEAVLQEKALKFMNSSEREDCNNGEPPRKIIPEKNSLRQTYNSCARLCINQETVCLTSTAMKTENCVAKAKLANGTSSMIVPKQRKLSASYEKEKELCVKYFEQWSESDQVEFVEHLISQMCHYQHGHINSYLKPMLQRDFITALPARGLDHIAENILSYLDAKSLCAAELVCKEWYRVTSDGMLWKKLIERMVRTDSLWRGLAERRGWGQYLFKNKPPDENAPPNSFYRALYPKIIQDIETIESNWRCGRHSLQRIHCRSETSKGVYCLQYDDQKIVSGLRDNTIKIWDKSTLECKRILTGHTGSVLCLQYDERVIITGSSDSTVRVWDVNAGEMLNTLIHHCEAVLHLRFNNGMMVTCSKDRSIAVWDMASPTDITLRRVLVGHRAAVNVVDFDDKYIVSASGDRTIKVWNTSTCEFVRTLNGHKRGIACLQYRDRLVVSGSSDNTIRLWDIECGACLRVLEGHEELVRCIRFDNKRIVSGAYDGKIKVWDLMAALDPRAPAGTLCLRTLVEHSGRVFRLQFDEFQIVSSSHDDTILIWDFLNDPAAHAEPPRSPSRTYTYISR
modifications: left off: small tags and cut ends
notes: FLAG-tagged mouse β-TrCP, E3 family member
Question: With B1 as the molecule, how does the “relative binding of IκBα / pIκBα” value ([6]; comparison between family members) read?
Answer: far better than the highly homologous Drosophila protein

Question: And the “binding to IKK-phosphorylated versus mock-phosphorylated IκBα” value ([6]; FLAG-tagged protein from transfected 293 cells)?
Answer: exclusively bound IKK-phosphorylated, but not mock-phosphorylated, IκBα

Source: patent publication US8263326B2, “Compounds and methods for modulating activation of NF-κB” (Signal Pharmaceuticals, LLC, priority 1998, dated 2012)
